According to ChEMBL document CHEMBL1201862, “PubChem BioAssay data set” (2004):
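Compound exposure: 48 hours, 5 concentrations, 96-well plates. At the GI50, growth is halved.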 The source made the active and inactive calls. Cut-off read from the data, not from the text of the source: active = GI50 up to about 1.1 µM and inactive = higher.

Key:
Experiment in all cases: DTP human tumour cell line panel, 48 h
[1] = system: COLO 205
[2] = system: MDA-MB-231
[3] = system: OVCAR-3
[4] = system: HT-29
[5] = system: KM12
[6] = system: MOLT-4
[7] = system: A549
[8] = system: SK-OV-3
[9] = system: UACC-62
[10] = system: LXFL 529
[11] = system: LOX IMVI
[12] = system: HCT-116
[13] = system: SF-268
[14] = system: NCI-H23
[15] = system: EKVX
[16] = system: MDA-MB-435
[17] = system: OVCAR-8
[18] = system: U-251
[19] = system: CAKI-1
[20] = system: 786-0

Measured: GI50

O=C(CC1(O)C(=O)Nc2c(Cl)cc(Cl)cc21)c1cccc([N+](=O)[O-])c1 (stereo unspecified)
inactive: [1] 33.3 µM | [2] 29.9 µM | [3] 25 µM | [4] 28.9 µM | [5] 24.5 µM | [6] 19.8 µM | [7] 39.5 µM | [8] 38.6 µM | [9] 18.8 µM | [10] 15.1 µM | [11] 17 µM | [12] 19.8 µM | [13] 44.4 µM | [14] 19.4 µM | [15] 52.5 µM | [16] 5.12 µM | [17] 29.9 µM | [18] 27.7 µM | [19] 32.6 µM | [20] 22.2 µM

COC(=O)NC1C(C)OC(OC2C/C=C(/C)C3C=CC4C(OC5CC(OC6CC(O)C(OC7CC(O)C(OC)C(C)O7)C(C)O6)C(O)C(C)O5)C(C)CC(C)C4C3(C)C(=O)C3=C(O)C4(CC(C)C(CO)=CC4/C=C\2C)OC3=O)CC1(C)[N+](=O)[O-] (stereo unspecified)
inactive: [1] 5.16 µM | [2] 12.6 µM | [3] 6.84 µM | [4] 15.7 µM | [5] 14.5 µM | [6] 3.72 µM | [7] 22.6 µM | [8] 12 µM | [9] 6.37 µM | [10] 2.7 µM | [11] 11.5 µM | [12] 5.36 µM | [13] 14.8 µM | [14] 11.9 µM | [15] 5.26 µM | [16] 8.75 µM | [17] 9.38 µM | [18] 10.9 µM | [19] 19.4 µM | [20] 9.93 µM

Cc1cc(Cl)cc2c1NC(=O)C2(O)CC(=O)c1ccc(Br)cc1 (stereo unspecified)
inactive: [1] > 100 µM | [3] 63 µM | [4] 49.9 µM | [5] 46.9 µM | [6] 20.5 µM | [7] > 100 µM | [8] > 100 µM | [9] 21.6 µM | [10] 68.9 µM | [11] 38.5 µM | [12] 56.9 µM | [13] > 77.8 µM | [14] 43.4 µM | [15] 59.4 µM | [17] 38.2 µM | [18] 79.4 µM | [19] > 100 µM | [20] 38.2 µM

CCOC(=O)CSc1nnc(CSc2nc(-c3ccccc3)c(-c3ccccc3)[nH]2)n1-c1ccccc1
inactive: [1] > 58.2 µM | [2] 34.5 µM | [3] > 100 µM | [4] 48.8 µM | [5] > 75.9 µM | [6] > 49.8 µM | [7] > 100 µM | [8] 23.4 µM | [9] 27.2 µM | [10] 21.1 µM | [11] > 61.5 µM | [12] > 56.5 µM | [13] 26.1 µM | [14] > 100 µM | [15] > 100 µM | [17] 18.7 µM | [18] > 100 µM | [20] 24.6 µM
